Assay results taken from ChEMBL document CHEMBL3217428, “Synthesis and evaluation of novel 5-sulfonyl-indolin-2-ones as potent cytotoxic agents” (Medchemcomm, 2011).
pIC50: −log10 of the molar value. The source made the active and inactive calls. The calls are words filed in the database; no cut-off is given here.

Tests used:
[1] = tested on: HUVEC; assay: Antiangiogenic activity in HUVEC assessed as reduction in tube formation by matrigel assay; assay type: functional, cell-based; settings: Homo sapiens
[2] = tested on: HCT-116; assay: Cytotoxicity against human HCT116 cells; assay type: functional, cell-based
[3] = tested on: HUVEC; assay: Antiangiogenic activity in HUVEC assessed as reduction in anastomoses formation by matrigel assay; assay type: functional, cell-based; settings: Homo sapiens
[4] = tested on: A549; assay: Induction of apoptosis in human A549 cells at 5 uM after 72 hrs by flow cytometry; assay type: functional
[5] = molecular target: Fibroblast growth factor receptor 2 (Homo sapiens) (UniProt P21802); assay: Inhibition of FGFR2 (unknown origin) at 50 uM
[6] = Cytotoxicity against human SGC7901 cells; assay type: functional, cell-based; settings: SGC-7901
[7] = tested on: A549; assay: Cytotoxicity against human A549 cells; assay type: functional, cell-based
[8] = Cytotoxicity against human ECA109 cells; assay type: functional, cell-based; settings: ECa-109
[9] = tested on: A549; assay: Induction of apoptosis in human A549 cells assessed as DNA fragmentation at 1.25 to 5 uM after 72 hrs by flow cytometry; assay type: functional, cell-based
[10] = tested on: A549; assay: Cell cycle arrest in human A549 cells assessed as accumulation at sub-G0/G1 phase at 5 uM after 72 hrs by flow cytometry; assay type: functional
[11] = tested on: A549; assay: Induction of apoptosis in human A549 cells assessed as hypodiploid DNA at 5 uM after 72 hrs by flow cytometry; assay type: functional, cell-based
[12] = tested on: HUVEC; assay: Antimigratory activity in HUVEC at 2 uM; assay type: functional, cell-based; settings: Homo sapiens

Fibroblast growth factor receptor 2 (Homo sapiens), sequence (P21802 22-821 limits assumed): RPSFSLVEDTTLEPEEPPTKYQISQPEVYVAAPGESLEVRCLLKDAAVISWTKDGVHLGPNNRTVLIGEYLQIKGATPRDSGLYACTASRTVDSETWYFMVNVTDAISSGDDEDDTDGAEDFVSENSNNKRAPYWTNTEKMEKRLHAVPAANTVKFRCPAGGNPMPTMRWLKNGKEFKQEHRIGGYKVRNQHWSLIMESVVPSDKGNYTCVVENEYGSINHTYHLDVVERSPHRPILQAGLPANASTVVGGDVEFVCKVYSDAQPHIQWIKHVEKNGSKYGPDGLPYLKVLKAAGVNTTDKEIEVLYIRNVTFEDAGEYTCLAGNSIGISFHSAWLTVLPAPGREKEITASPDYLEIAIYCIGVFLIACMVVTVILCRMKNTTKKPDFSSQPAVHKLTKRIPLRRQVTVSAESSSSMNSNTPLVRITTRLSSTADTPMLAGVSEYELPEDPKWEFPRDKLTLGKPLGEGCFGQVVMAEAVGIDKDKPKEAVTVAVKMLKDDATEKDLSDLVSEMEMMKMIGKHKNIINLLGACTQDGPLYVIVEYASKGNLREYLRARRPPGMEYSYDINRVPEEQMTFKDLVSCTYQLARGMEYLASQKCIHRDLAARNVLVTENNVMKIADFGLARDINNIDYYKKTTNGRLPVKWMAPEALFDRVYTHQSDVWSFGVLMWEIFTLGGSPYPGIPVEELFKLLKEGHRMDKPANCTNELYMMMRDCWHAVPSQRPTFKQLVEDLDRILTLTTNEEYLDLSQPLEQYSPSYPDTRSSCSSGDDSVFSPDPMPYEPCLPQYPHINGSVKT

In the case of CCN(CC)CCNC(=O)c1c(C)[nH]c(/C=C2\C(=O)Nc3ccc(F)cc32)c1C [SUNITINIB], the Activity [1] was “Dose-dependent effect”, the pIC50 [2] was 5.68 and the Activity [3] was “Dose-dependent effect”. It also gave an Activity [4] of 15.81%, an inhibition [5] of 61.8% and a pIC50 [6] of 4.73. For the same compound, the pIC50 [7] was 4.73 and the pIC50 [8] was 4.77.
Compound CCN(CC)CCNC(=O)c1c(C)[nH]c(/C=C2\C(=O)Nc3ccc(/C=C/S(=O)(=O)Cc4ccc(Cl)cc4)cc32)c1C has a pIC50 [2] of less than 4.60, a pIC50 [6] of less than 4.60 and a pIC50 [7] of less than 4.60. The pIC50 [8] was less than 4.60.
O=c1c(O)c(-c2ccc(O)c(O)c2)oc2cc(O)cc(O)c12 showed an inhibition [5] of 67.3%.
In the case of CCN(CC)CCNC(=O)c1c(C)[nH]c(/C=C2\C(=O)Nc3ccc(/C=C/S(=O)(=O)c4ccc(Br)cc4)cc32)c1C, the pIC50 [2] was 5.47, the inhibition [5] was 67.8% and the pIC50 [6] was 5.64. It also gave a pIC50 [7] of 5.28 and a pIC50 [8] of 5.21.
In the case of CCN(CC)CCNC(=O)c1c(C)[nH]c(/C=C2\C(=O)Nc3ccc(/C=C/S(=O)(=O)Cc4cccc(F)c4)cc32)c1C, the pIC50 [2] was 4.90, the pIC50 [6] was 4.96 and the pIC50 [7] was 5.08. It also gave a pIC50 [8] of 5.13.
Compound CCN(CC)CCNC(=O)c1c(C)[nH]c(/C=C2\C(=O)Nc3ccc(/C=C/S(=O)(=O)Cc4ccc(F)cc4)cc32)c1C has a pIC50 [2] of less than 4.90, a pIC50 [6] of less than 4.90 and a pIC50 [7] of less than 4.90. The pIC50 [8] was less than 4.90.
CCN(CC)CCNC(=O)c1c(C)[nH]c(/C=C2\C(=O)Nc3ccc(S(=O)(=O)/C=C/c4ccccc4)cc32)c1C gave a pIC50 [2] of 5.62, a pIC50 [6] of 5.30 and a pIC50 [7] of 5.54. The pIC50 [8] was 5.86.
CCN(CC)CCNC(=O)c1c(C)[nH]c(/C=C2\C(=O)Nc3ccc(/C=C/S(=O)(=O)c4ccccc4)cc32)c1C showed a pIC50 [2] of 5.19, a pIC50 [6] of 5.24 and a pIC50 [7] of 5.16. The pIC50 [8] was 5.57.
Cc1[nH]c(/C=C2\C(=O)Nc3ccc(/C=C/S(=O)(=O)c4ccc(F)cc4)cc32)c(C)c1C(=O)NCCN(C)C gave a pIC50 [2] of 5.14, a pIC50 [6] of 5.20 and a pIC50 [7] of 5.18. The pIC50 [8] was 5.52.
Cc1[nH]c(/C=C2\C(=O)Nc3ccc(/C=C/S(=O)(=O)c4ccc(F)cc4)cc32)c(C)c1C(=O)NCCCN(C)C gave a pIC50 [2] of 5.01, a pIC50 [6] of 5.20 and a pIC50 [7] of less than 4.90. For the same compound, the pIC50 [8] was 5.54.
CCN(CC)CCNC(=O)c1c(C)[nH]c(/C=C2\C(=O)Nc3ccc(/C=C/S(=O)(=O)Cc4ccccc4)cc32)c1C showed a pIC50 [2] of 4.86, a pIC50 [6] of 4.84 and a pIC50 [7] of 5.09. The pIC50 [8] was 4.97.
CCN(CC)CCNC(=O)c1c(C)[nH]c(/C=C2\C(=O)Nc3ccc(/C=C/S(C)(=O)=O)cc32)c1C gave a pIC50 [2] of 5.58, a pIC50 [6] of 4.78 and a pIC50 [7] of 4.54. For the same compound, the pIC50 [8] was 4.90.
In the case of CCN(CC)CCCNC(=O)c1c(C)[nH]c(/C=C2\C(=O)Nc3ccc(/C=C/S(=O)(=O)c4ccc(F)cc4)cc32)c1C, the pIC50 [2] was 5.24, the pIC50 [6] was 5.46 and the pIC50 [7] was less than 4.90. It also gave a pIC50 [8] of 5.32.
For CCN(CC)CCNC(=O)c1c(C)[nH]c(/C=C2\C(=O)Nc3ccc(/C=C/S(=O)(=O)c4ccc(F)cc4)cc32)c1C, the Activity [1] was “Dose-dependent effect”, the pIC50 [2] was 5.74 and the Activity [3] was “Dose-dependent effect”. The Activity [9] was “Active”, the Activity [10] was 68.21% and the Activity [11] was “Active”. The inhibition [5] was 76.6%, the pIC50 [6] was 5.16 and the inhibition [7] was “Dose-dependent effect”. The Activity [12] was “Active” and the pIC50 [8] was 5.24.
Compound CCN(CC)CCNC(=O)c1c(C)[nH]c(/C=C2\C(=O)Nc3ccc(S(=O)(=O)/C=C/c4ccc(Cl)cc4)cc32)c1C has a pIC50 [2] of 5.71, an inhibition [5] of 72% and a pIC50 [6] of 5.59. It also gave a pIC50 [7] of 5.55 and a pIC50 [8] of 5.32.
